Assay results: PubChem BioAssay (NCI)
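48-hour exposure; five concentrations; linearly interpolated endpoints. Abbreviation: GI50, concentration required for 50% inhibition of growth. TGI marks complete inhibition of growth.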

Key:
Test in all cases: NCI anticancer screen, dose series, 48 h
MALME-3M melanoma = tested on: MALME-3M melanoma
HCC-2998 colon = tested on: HCC-2998 colon
SK-MEL-5 melanoma = tested on: SK-MEL-5 melanoma
ACHN renal = tested on: ACHN renal
MOLT-4 leukemia = tested on: MOLT-4 leukemia
OVCAR-5 ovarian = tested on: OVCAR-5 ovarian
SF-268 CNS = tested on: SF-268 CNS
786-0 renal = tested on: 786-0 renal
OVCAR-3 ovarian = tested on: OVCAR-3 ovarian
BT-549 breast = tested on: BT-549 breast
TK-10 renal = tested on: TK-10 renal
HT29 colon = tested on: HT29 colon
CCRF-CEM leukemia = tested on: CCRF-CEM leukemia
SF-295 CNS = tested on: SF-295 CNS
HS 578T breast = tested on: HS 578T breast
MDA-MB-435 = tested on: MDA-MB-435
IGROV1 ovarian = tested on: IGROV1 ovarian
NCI-H522 lung = tested on: NCI-H522 lung
M14 melanoma = tested on: M14 melanoma
SN12C renal = tested on: SN12C renal
SNB-19 CNS = tested on: SNB-19 CNS
COLO 205 colon = tested on: COLO 205 colon
PC-3 prostate = tested on: PC-3 prostate
K-562 leukemia = tested on: K-562 leukemia
HCT-116 colon = tested on: HCT-116 colon
LOX IMVI melanoma = tested on: LOX IMVI melanoma
OVCAR-4 ovarian = tested on: OVCAR-4 ovarian
HOP-92 NSCLC = tested on: HOP-92 NSCLC
UACC-62 melanoma = tested on: UACC-62 melanoma
CAKI-1 renal = tested on: CAKI-1 renal
HL-60(TB) leukemia = tested on: HL-60(TB) leukemia
MDA-MB-231 breast = tested on: MDA-MB-231 breast
SK-MEL-28 melanoma = tested on: SK-MEL-28 melanoma
SK-MEL-2 melanoma = tested on: SK-MEL-2 melanoma
T-47D breast = tested on: T-47D breast
DU-145 prostate = tested on: DU-145 prostate
HCT-15 colon = tested on: HCT-15 colon
NCI/ADR-RES ovarian = tested on: NCI/ADR-RES ovarian
NCI-H23 lung = tested on: NCI-H23 lung
RPMI-8226 leukemia = tested on: RPMI-8226 leukemia
UO-31 renal = tested on: UO-31 renal
NCI-H460 lung = tested on: NCI-H460 lung
SF-539 CNS = tested on: SF-539 CNS
NCI-H226 lung = tested on: NCI-H226 lung
KM12 colon = tested on: KM12 colon
U251 CNS = tested on: U251 CNS
SW-620 colon = tested on: SW-620 colon
A498 renal = tested on: A498 renal
A549 NSCLC = tested on: A549 NSCLC
UACC-257 melanoma = tested on: UACC-257 melanoma
SR leukemia = tested on: SR leukemia
SNB-75 CNS = tested on: SNB-75 CNS
RXF 393 renal = tested on: RXF 393 renal
MCF7 breast = tested on: MCF7 breast
EKVX NSCLC = tested on: EKVX NSCLC
OVCAR-8 ovarian = tested on: OVCAR-8 ovarian
SK-OV-3 ovarian = tested on: SK-OV-3 ovarian
HOP-62 NSCLC = tested on: HOP-62 NSCLC

## CCCCc1ccc(Nc2nc(=S)c3[nH]cnc3[nH]2)cc1
MALME-3M melanoma
  TGI: 37 µM
HCC-2998 colon
  TGI: 66.4 µM
SK-MEL-5 melanoma
  TGI: 25.5 µM
ACHN renal
  TGI: 59.2 µM
MOLT-4 leukemia
  TGI: 22.2 µM
OVCAR-5 ovarian
  TGI: 43.5 µM
SF-268 CNS
  TGI: > 100 µM
786-0 renal
  TGI: > 100 µM
OVCAR-3 ovarian
  TGI: 43 µM
BT-549 breast
  TGI: 39 µM
TK-10 renal
  TGI: 46.5 µM
HT29 colon
  TGI: 22 µM
CCRF-CEM leukemia
  TGI: 47.9 µM
SF-295 CNS
  TGI: 78.7 µM
HS 578T breast
  TGI: 49.3 µM
MDA-MB-435
  TGI: 48.1 µM
IGROV1 ovarian
  TGI: 40.4 µM
NCI-H522 lung
  TGI: 22.8 µM
M14 melanoma
  TGI: > 100 µM
SN12C renal
  TGI: 59 µM
SNB-19 CNS
  TGI: 56.8 µM
COLO 205 colon
  TGI: 31.2 µM
PC-3 prostate
  TGI: > 100 µM
K-562 leukemia
  TGI: > 100 µM
HCT-116 colon
  TGI: > 100 µM
LOX IMVI melanoma
  TGI: 31.7 µM
OVCAR-4 ovarian
  TGI: 76.4 µM
HOP-92 NSCLC
  TGI: > 100 µM
UACC-62 melanoma
  TGI: 35.1 µM
CAKI-1 renal
  TGI: 92.6 µM
HL-60(TB) leukemia
  TGI: 57.8 µM
MDA-MB-231 breast
  TGI: 83.3 µM
SK-MEL-28 melanoma
  TGI: > 100 µM
SK-MEL-2 melanoma
  TGI: 52.1 µM
T-47D breast
  TGI: 49.3 µM
DU-145 prostate
  TGI: > 100 µM
HCT-15 colon
  TGI: > 100 µM
NCI/ADR-RES ovarian
  TGI: 40.3 µM
NCI-H23 lung
  TGI: 51.7 µM
RPMI-8226 leukemia
  TGI: 90.4 µM
UO-31 renal
  TGI: > 100 µM
NCI-H460 lung
  TGI: > 100 µM
SF-539 CNS
  TGI: 48 µM
NCI-H226 lung
  TGI: 31.6 µM
KM12 colon
  TGI: 25.8 µM
U251 CNS
  TGI: > 100 µM
SW-620 colon
  TGI: 60.9 µM
A498 renal
  TGI: 31.7 µM
A549 NSCLC
  TGI: > 100 µM
UACC-257 melanoma
  TGI: 55.2 µM

## O=C(C[n+]1ccccc1)N/N=C(\Cc1nc2ccc([N+](=O)[O-])cc2[nH]c1=O)C(=O)Nc1cc(Cl)c(Cl)cc1Cl
MALME-3M melanoma
  TGI: > 100 µM
HCC-2998 colon
  TGI: > 100 µM
SK-MEL-5 melanoma
  TGI: > 100 µM
ACHN renal
  TGI: > 100 µM
MOLT-4 leukemia
  TGI: > 100 µM
OVCAR-5 ovarian
  TGI: > 100 µM
SF-268 CNS
  TGI: > 100 µM
786-0 renal
  TGI: > 100 µM
OVCAR-3 ovarian
  TGI: > 100 µM
SR leukemia
  TGI: > 100 µM
SNB-75 CNS
  TGI: > 100 µM
BT-549 breast
  TGI: > 100 µM
HT29 colon
  TGI: > 100 µM
CCRF-CEM leukemia
  TGI: > 100 µM
SF-295 CNS
  TGI: > 100 µM
HS 578T breast
  TGI: > 100 µM
RXF 393 renal
  TGI: > 100 µM
MDA-MB-435
  TGI: > 100 µM
MCF7 breast
  TGI: > 100 µM
IGROV1 ovarian
  TGI: > 100 µM
NCI-H522 lung
  TGI: > 100 µM
M14 melanoma
  TGI: > 100 µM
SN12C renal
  TGI: > 100 µM
SNB-19 CNS
  TGI: > 100 µM
COLO 205 colon
  TGI: > 100 µM
PC-3 prostate
  TGI: > 100 µM
K-562 leukemia
  TGI: > 100 µM
HCT-116 colon
  TGI: > 100 µM
LOX IMVI melanoma
  TGI: > 100 µM
OVCAR-4 ovarian
  TGI: > 100 µM
EKVX NSCLC
  TGI: > 100 µM
HOP-92 NSCLC
  TGI: > 100 µM
OVCAR-8 ovarian
  TGI: > 100 µM
UACC-62 melanoma
  TGI: > 100 µM
CAKI-1 renal
  TGI: > 100 µM
HL-60(TB) leukemia
  TGI: > 100 µM
MDA-MB-231 breast
  TGI: > 100 µM
SK-MEL-28 melanoma
  TGI: > 100 µM
SK-MEL-2 melanoma
  TGI: > 100 µM
T-47D breast
  TGI: > 100 µM
DU-145 prostate
  TGI: > 100 µM
HCT-15 colon
  TGI: > 100 µM
NCI/ADR-RES ovarian
  TGI: > 100 µM
NCI-H23 lung
  TGI: > 100 µM
RPMI-8226 leukemia
  TGI: > 100 µM
UO-31 renal
  TGI: > 100 µM
NCI-H460 lung
  TGI: > 100 µM
SF-539 CNS
  TGI: > 100 µM
NCI-H226 lung
  TGI: > 100 µM
SK-OV-3 ovarian
  TGI: > 100 µM
KM12 colon
  TGI: > 100 µM
U251 CNS
  TGI: > 100 µM
SW-620 colon
  TGI: > 100 µM
A498 renal
  TGI: > 100 µM
A549 NSCLC
  TGI: > 100 µM
UACC-257 melanoma
  TGI: > 100 µM

## CCN(CC)CCCC(C)Nc1nc(C)cc(Nc2ccc3nc(C)cc(N)c3c2)n1 (centres undefined)
MALME-3M melanoma
  GI50: 24.7 µM
  TGI: 70.2 µM
HCC-2998 colon
  GI50: 26.9 µM
  TGI: 82.9 µM
SK-MEL-5 melanoma
  GI50: > 100 µM
  TGI: > 100 µM
ACHN renal
  GI50: > 100 µM
  TGI: > 100 µM
OVCAR-5 ovarian
  GI50: 45.8 µM
  TGI: > 100 µM
SF-268 CNS
  GI50: 22.1 µM
  TGI: 50.9 µM
786-0 renal
  GI50: > 100 µM
  TGI: > 100 µM
OVCAR-3 ovarian
  GI50: 32.1 µM
  TGI: 96.9 µM
SR leukemia
  GI50: 24 nM
  TGI: 22.8 µM
SNB-75 CNS
  GI50: 19.8 µM
  TGI: > 100 µM
BT-549 breast
  GI50: 19.2 µM
  TGI: 56.7 µM
TK-10 renal
  GI50: > 100 µM
  TGI: > 100 µM
HT29 colon
  GI50: 24.4 µM
  TGI: 75.2 µM
CCRF-CEM leukemia
  GI50: 15.3 µM
  TGI: 41.6 µM
SF-295 CNS
  GI50: 28.7 nM
  TGI: 28.7 µM
HS 578T breast
  GI50: 24.6 µM
  TGI: 65.1 µM
RXF 393 renal
  GI50: 55.1 µM
  TGI: > 100 µM
MDA-MB-435
  GI50: 14.5 µM
  TGI: 29.5 µM
MCF7 breast
  GI50: 31.2 µM
  TGI: 78.3 µM
IGROV1 ovarian
  GI50: 28 µM
  TGI: > 100 µM
NCI-H522 lung
  GI50: 23.9 µM
  TGI: 91.9 µM
M14 melanoma
  GI50: 33.7 µM
  TGI: > 100 µM
SN12C renal
  GI50: 37 µM
  TGI: > 100 µM
SNB-19 CNS
  GI50: 24.7 µM
  TGI: 97 µM
COLO 205 colon
  GI50: 39.5 µM
  TGI: > 100 µM
PC-3 prostate
  GI50: 12.4 µM
  TGI: 37.8 µM
K-562 leukemia
  GI50: 27.1 µM
  TGI: 51.5 µM
HCT-116 colon
  GI50: 32.4 µM
  TGI: > 100 µM
LOX IMVI melanoma
  GI50: 18.4 µM
  TGI: 39.8 µM
OVCAR-4 ovarian
  GI50: 20.9 µM
  TGI: 60.8 µM
HOP-62 NSCLC
  GI50: 38.9 µM
  TGI: > 100 µM
EKVX NSCLC
  GI50: 53.3 µM
  TGI: > 100 µM
OVCAR-8 ovarian
  GI50: 84.5 µM
  TGI: > 100 µM
UACC-62 melanoma
  GI50: 39.2 µM
  TGI: > 100 µM
MDA-MB-231 breast
  GI50: 29 µM
  TGI: 85.8 µM
SK-MEL-28 melanoma
  GI50: 24.3 µM
  TGI: 50.1 µM
SK-MEL-2 melanoma
  GI50: 56.6 µM
  TGI: > 100 µM
T-47D breast
  GI50: 28.6 µM
  TGI: 99.4 µM
DU-145 prostate
  GI50: 42.4 µM
  TGI: > 100 µM
HCT-15 colon
  GI50: > 100 µM
  TGI: > 100 µM
NCI/ADR-RES ovarian
  GI50: > 100 µM
  TGI: > 100 µM
NCI-H23 lung
  GI50: 32.1 µM
  TGI: > 100 µM
RPMI-8226 leukemia
  GI50: 4.52 µM
  TGI: 23 µM
UO-31 renal
  GI50: 86.1 µM
  TGI: > 100 µM
NCI-H460 lung
  GI50: 24.3 µM
  TGI: 62.8 µM
SF-539 CNS
  GI50: 20.8 µM
  TGI: 43.6 µM
NCI-H226 lung
  GI50: > 100 µM
  TGI: > 100 µM
SK-OV-3 ovarian
  GI50: > 100 µM
  TGI: > 100 µM
KM12 colon
  GI50: 19.3 µM
  TGI: 40.1 µM
U251 CNS
  GI50: 26.4 µM
  TGI: 98.7 µM
SW-620 colon
  GI50: 35.8 µM
  TGI: > 100 µM
A498 renal
  GI50: > 100 µM
  TGI: > 100 µM
A549 NSCLC
  GI50: > 100 µM
  TGI: > 100 µM
UACC-257 melanoma
  GI50: 36.4 µM
  TGI: > 100 µM
